Test results taken from patent US12233129B2, “Methods and compositions for the treatment of cancer” (priority 2019, dated 2025).
Entries after “also recorded” stand apart in the source; their conditions may differ. Where two headings read alike, the source gives them in different places.

Tests used:
UBXN2A = test: Western blot of UBXN2A protein in treated HCT-116 cells; assay type: cell-based, human; conditions: VTD 20 and 40 μM, 24 hours
Protocol: Our in vivo results encouraged us to screen for compounds that can enhance expression of UBXN2A. Using the UBXN2A promoter upstream of a luciferase construct that was transiently transfected to HCT-116 cells, we performed a high-throughput drug screen with 1800 FDA approved drugs, synthetic compounds, and natural products. Forty-eight hours after transfection, cells were treated with compounds for 24 hours in triplicate (FIG. 16A). […] We looked at protein expression of UBXN2A as well as P47 (another member of the UBXD family) to confirm the selectivity of VH as a selective enhancer of UBXN2A protein in cells. […] We observed a different level of VH-dependent UBXN2A induction in different segments of the gastrointestinal system (esophagus to rectum; data not shown).
The alkaloid fraction of Veratrine is known to contain a mixture of two major alkaloid esters: Veratridine (VTD) and Cevadine. VTD, with a veratroyl group at the 3-OR1 position and a free hydroxyl group at the 15-O-R2 position can function as an antihypertensive plant-derived substance. […]
A cell-based screen was conducted in search of compounds that induce the expression of the UBXN2A gene. […] A glow luciferase activity assay was conducted in triplicate followed by semi-quantitative RT-PCR and WB analysis for UBXN2A, p47 (negative control), or GAPDH± Veratrine or its purified form VTD. […]

HCT-116 = system: HCT-116
Protocol: Besides the cell viability assay, we decided to measure the apoptotic activity in the above combination therapy.
Cells were treated with 5-FU (5-100 μM) and etoposide (1-50 μM) along with VTD (30 and 100 μM respectively) in two different set of experiments for 24 hours.
An MTT (3[4, 5-dimethylthiazol-2-yl]-2, 5-diphenyltetrazolium bromide) assay was performed to measure the viability of cells. Briefly, cells were seeded at a density of 10×10^3 cells per well in phenol-red free growth media. After 24 hours, cells were treated with various concentrations of VTD±5-FU or etoposide. After incubation, an MTT dye was added to the cells for 2-4 hours. The absorbance of samples was measured at 630 nm using an EXL808 absorption spectrophotometer (Biotek, Winooski). The viability of cells was calculated as % of control. Cell detachment and clonogenic survival assays were conducted as previously described. Early apoptosis, caspase-3, cleaved PARP and Sytox Red (Life Technology, NY, USA) were measured by the Accuri C6 flow cytometer system (BD Pharmingen, MD, USA).[54]
(A-H) (A-C) HCT-116 and (D-F) LoVo were treated with VTD (10-300 μM) for 24, 48, and 72 hours. A suboptimal dose of Etoposide (ETO) ([…]) was added to cells for the last 24 hours only. The viability of cells was determined as % of control (untreated cells) using an MTT assay. […] (G-H) HCT-116 (G) and LoVo (H) cells were treated with VTD (10-200 μM) and a suboptimal dose of ETO (5 μM) for 24 hours. Cells were then stained with Annexin V apoptotic marker. […] (I-L) HCT-116 and LoVo cells were treated with different doses of 5-FU (5-100 μM, I-J) and ETO (1-50 μM, K-L) along with VTD (30 μM and 100 μM respectively) for 24 hours.

[1] = system: SW480 colon cancer cell line; test: Flow cytometry of stem cell markers; assay type: cell-based, human; conditions: VTD 72 hours
Protocol: FIG. 24 panels A-D are examples of FlowJo analysis of CD44 biomarker in SW480 cells treated with VTD for 72 hours.

COc1ccc(C(=O)O[C@H]2CC[C@@]3(C)[C@@H]4CC[C@H]5[C@]6(O)C[C@H](O)[C@@]7(O)[C@@H](CN8C[C@@H](C)CC[C@H]8[C@@]7(C)O)[C@]6(O)C[C@@]53O[C@]24O)cc1OC [VTD, Veratridine]
UBXN2A protein expression (WB) (UBXN2A): induces UBXN2A expression in a dose-dependent manner; also recorded: increases UBXN2A protein levels in a dose-dependent manner | combination index (CI) (HCT-116; 5-FU 75 μM combined with 100 μM VTD): 0.165 | combination index (CI) (HCT-116; 5-FU 100 μM combined with 100 μM VTD): 0.109 | cell viability (MTT), 5-FU effect enhanced by VTD (HCT-116; 5-FU 5-100 μM along with VTD 100 μM, 24 hours): significantly enhanced the 5-FU and etoposide effects on cell viability | combination index (CI) (HCT-116; VTD 30 μM with etoposide 5 μM): 0.516 | cell viability (MTT), combination (HCT-116; VTD 10-300 μM 24, 48, 72 hours plus suboptimal etoposide 5 μM for the last 24 hours): significantly potentiates the cytotoxic effect of VTD | cell viability (MTT), etoposide effect enhanced by VTD (HCT-116; etoposide 1-50 μM along with VTD 30 μM, 24 hours): significantly enhanced the 5-FU and etoposide effects on cell viability | combination index (CI) (HCT-116; higher concentrations of VTD with etoposide 5 μM): ≤ 0.4 | combination index (CI) (HCT-116; low doses of VTD with etoposide, antagonistic): > 1 | CD44+ stem cell population [1]: significant reduction | CD133+ stem cell population [1]: significant reduction | LgR5+ stem cell population [1]: significant reduction
